Assay results: patent US10597382B2, “Tetrazole containing apoptosis signal-regulating kinase 1 inhibitors and methods of use thereof” (ENANTA PHARMACEUTICALS, INC., priority 2017, dated 2020)

Target: ASK1 kinase (Homo sapiens (Human), UniProt Q99683)
Assay: HTRF KinEASE assay of ASK1 kinase activity inhibition
Type: biochemical
Conditions: HTRF KinEASE-STK TR-FRET; 5 nM ASK1, 1 uM STK3 peptide substrate, 100 uM ATP, 3 hours
Procedure: • The ability (IC50) of compounds to inhibit ASK1 kinase activity was determined by HTRF® KinEASE™ Assay System
ASK1 kinase was from Thermofisher (Catalogue # PV4011), ATP was from Sigma (Catalogue # A7699), HTRF® KinEASE™ Assay System was obtained from Cisbio (Bedford, Mass.). ½ Area plate was from Perkin Elmer (Catalogue #6005560). HTRF® KinEASE™-STK is a generic method for measuring serine/threonine kinase activities using time-resolved fluorescence resonance energy transfer (TR-FRET) immunoassay. The IC50 value for each compound was determined in the presence of compound (various concentration from 0 to 10 uM) and a fixed amount of ATP, peptide substrates. Test compound, 1 uM STK3 peptide substrate, 5 nM of ASK1 kinase are incubated with kinase reaction buffer, containing 50 mM HEPES pH 7.5, 0.01% BRIJ-35, 10 mM MgCl2, and 1 mM EGTA for 30 minutes, then 100 uM ATP is added to start kinase reaction and incubated for 3 hours. The STK3-antibody labeled with Eu^3+-Cryptate and 125 nM streptavidin-XL665 are mixed in a single addition with stop reagents provided by the Cisbio kit used to stop the kinase reaction. Fluorescence is detected using Envision Multilabeled 2014 reader from PerkinElmer. The Fluorescence is measured at 615 nm (Cryptate) and 665 nm (XL665) and a ratio of 665 nm/615 nm is calculated for each well. The resulting TR-FRET is proportional to the phosphorylation level. Staurosporine was used as the positive control. IC50 was determined by Xlfit 5.3.
By using above method, the inhibition of ASK1 was tested for the compound of formula (I). IC50 ranges are as follows: A<1 nM; 1 nM<[…]B<10 nM; 10 nM<C<100 nM; 100 nM<D<1 μM; E>1 μM.

Chain of ASK1 kinase (Q99683 whole entry): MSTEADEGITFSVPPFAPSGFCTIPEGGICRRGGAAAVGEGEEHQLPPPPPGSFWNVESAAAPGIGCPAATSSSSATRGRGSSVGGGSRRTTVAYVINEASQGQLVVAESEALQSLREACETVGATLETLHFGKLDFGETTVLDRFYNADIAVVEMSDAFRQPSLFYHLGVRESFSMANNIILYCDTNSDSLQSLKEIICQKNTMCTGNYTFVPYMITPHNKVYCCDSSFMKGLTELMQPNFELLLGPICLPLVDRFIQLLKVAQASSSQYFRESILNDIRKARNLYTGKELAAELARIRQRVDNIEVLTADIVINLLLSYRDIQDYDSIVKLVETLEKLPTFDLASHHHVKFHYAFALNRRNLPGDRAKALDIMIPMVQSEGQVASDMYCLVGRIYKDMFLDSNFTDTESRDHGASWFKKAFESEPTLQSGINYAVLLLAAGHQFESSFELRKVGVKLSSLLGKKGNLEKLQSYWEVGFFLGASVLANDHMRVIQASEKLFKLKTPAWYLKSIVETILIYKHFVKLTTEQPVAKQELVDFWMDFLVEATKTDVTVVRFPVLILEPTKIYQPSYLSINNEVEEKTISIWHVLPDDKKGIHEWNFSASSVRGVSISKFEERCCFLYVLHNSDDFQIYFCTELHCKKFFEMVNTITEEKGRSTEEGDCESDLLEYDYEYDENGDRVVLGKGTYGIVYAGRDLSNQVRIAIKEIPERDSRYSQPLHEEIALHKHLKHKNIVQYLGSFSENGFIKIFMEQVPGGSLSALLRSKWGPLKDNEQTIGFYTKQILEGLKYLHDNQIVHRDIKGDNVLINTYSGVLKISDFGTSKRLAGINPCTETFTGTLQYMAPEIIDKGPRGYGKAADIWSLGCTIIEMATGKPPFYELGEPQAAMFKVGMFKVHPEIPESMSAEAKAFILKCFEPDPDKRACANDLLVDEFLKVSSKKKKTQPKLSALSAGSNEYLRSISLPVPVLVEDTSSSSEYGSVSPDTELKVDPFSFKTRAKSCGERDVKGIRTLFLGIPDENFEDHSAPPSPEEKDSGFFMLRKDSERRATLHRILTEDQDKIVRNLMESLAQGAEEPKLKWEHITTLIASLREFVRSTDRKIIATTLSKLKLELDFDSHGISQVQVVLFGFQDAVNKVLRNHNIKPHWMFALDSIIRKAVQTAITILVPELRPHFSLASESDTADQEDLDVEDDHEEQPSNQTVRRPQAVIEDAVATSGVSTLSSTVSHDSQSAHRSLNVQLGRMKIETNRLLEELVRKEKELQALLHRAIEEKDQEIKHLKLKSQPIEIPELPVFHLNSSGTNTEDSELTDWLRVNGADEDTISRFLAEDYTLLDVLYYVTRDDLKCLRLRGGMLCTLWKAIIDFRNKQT

Q: For `CC(C)c1nnnn1-c1cccc(N2Cc3ccc(-n4cnc(C5CC5)c4)cc3C2=O)n1` [Example 1, 6-(4-cyclopropyl-1H-imidazol-1-yl)-2-(6-(5-isopropyl-1H-tetrazol-1-yl)pyridine-2-yl)isoindolin-1-one], which IC50 is on record?
A: 1 to 10 nM

Q: With `CC(C)n1nnnc1-c1cccc(N2Cc3ccc(-n4cnc(C5CC5)c4)cc3C2=O)n1` [Example 2, 6-(4-cyclopropyl-1H-imidazol-1-yl)-2-(6-(1-isopropyl-1H-tetrazol-5-yl)pyridine-2-yl)isoindolin-1-one] as the molecule, how does the IC50 read?
A: 10 to 100 nM

Q: `CC(=O)OC[C@@H](C)n1nnnc1-c1cccc(N2Cc3ccc(-n4cnc(C5CC5)c4)cc3C2=O)n1` [Example 3, I-2-(5-(6-(6-(4-cyclopropyl-1H-imidazol-1-yl)-1-oxoisoindolin-2-yl)pyridine-2-yl)-1H-tetrazol-1-yl)propyl acetate] was tested. Which IC50 did it give?
A: 100 to 1000 nM

Q: How did the IC50 turn out when `C[C@H](CO)n1nnnc1-c1cccc(N2Cc3ccc(-n4cnc(C5CC5)c4)cc3C2=O)n1` [Example 4, I-6-(4-cyclopropyl-1H-imidazol-1-yl)-2-(6-(1-(1-hydroxypropan-2-yl)-1H-tetrazol-5-yl)pyridine-2-yl)isoindolin-1-one] was run?
A: 10 to 100 nM

Q: `CC(=O)OC[C@@H](C)n1nnnc1-c1cccc(N2Cc3ccc(OC(C)C)cc3C2=O)n1` [Example 5, I-2-(5-(6-(6-isopropoxy-1-oxoisoindolin-2-yl)pyridine-2-yl)-1H-tetrazol-1-yl)propyl acetate] was tested. Which IC50 did it give?
A: > 1000 nM

Q: With `CC(C)Oc1ccc2c(c1)C(=O)N(c1cccc(-c3nnnn3[C@H](C)CO)n1)C2` [Example 6, I-2-(6-(1-(1-hydroxypropan-2-yl)-1H-tetrazol-5-yl)pyridine-2-yl)-6-isopropoxyisoindolin-1-one] as the molecule, how does the IC50 read?
A: 1 to 10 nM

Q: `CC(C)n1nnnc1-c1cccc(N2Cc3ccccc3C2=O)n1` [Example 7] was tested. Which IC50 did it give?
A: 10 to 100 nM

Q: How did the IC50 turn out when `CC(C)c1nnnn1-c1cccc(N2Cc3ccc(N4CCOCC4)cc3C2=O)n1` [Example 8] was run?
A: 100 to 1000 nM

Q: For `CC(C)c1nnnn1-c1cccc(N2Cc3ccc(-c4cccnc4)cc3C2=O)n1` [Example 9], which IC50 is on record?
A: 10 to 100 nM

Q: Which IC50 does the source give for `CCN1CCN(c2ccc3c(c2)C(=O)N(c2cccc(-n4nnnc4C(C)C)n2)C3)CC1=O` [Example 10] here?
A: 10 to 100 nM

Q: For `Cc1ncccc1-c1ccc2c(c1)C(=O)N(c1cccc(-n3nnnc3C(C)C)n1)C2` [Example 11], which IC50 is on record?
A: 100 to 1000 nM

Q: How did the IC50 turn out when `Cc1ccncc1-c1ccc2c(c1)C(=O)N(c1cccc(-n3nnnc3C(C)C)n1)C2` [Example 12] was run?
A: 100 to 1000 nM

Q: `CC(C)n1nnnc1-c1cccc(N2Cc3ccc(-c4cccnc4)cc3C2=O)n1` [Example 13] was tested. Which IC50 did it give?
A: 1 to 10 nM

Q: How did the IC50 turn out when `Cc1cc2c(cc1OC(C)C)C(=O)N(c1cccc(-c3nnnn3[C@H](C)CO)n1)C2` [Example 14] was run?
A: 1 to 10 nM

Q: Which IC50 does the source give for `CC(C)n1nnnc1-c1cccc(N2Cc3ccc(-c4cncc(C5CC5)c4)cc3C2=O)n1` [Example 15] here?
A: 10 to 100 nM

Q: `CC(C)n1nnnc1-c1cccc(N2Cc3ccc(-c4ccc(C5CC5)nc4)cc3C2=O)n1` [Example 16] was tested. Which IC50 did it give?
A: 10 to 100 nM
